From patent US20250188077A1, “CRYSTAL FORM OF 1H-PYRROLO[2,3-C]PYRIDINE COMPOUND AND PREPARATION METHOD THEREFOR” (JUMBO DRUG BANK CO., LTD., priority 2022, published 2025)
Where two headings read alike, the source gives them in different places.

Columns and labels:
[1] = Hygroscopicity study by dynamic vapor sorption (DVS); type: physicochemical; conditions: 80% RH/25° C.
Method: Instrument model: SMS DVS Intrinsic dynamic vapor sorption instrument
Test conditions: The sample (10 mg) was taken and placed in a DVS sample plate for testing.
Detailed DVS parameters were as follows:
Drying: 25° C., 0% RH drying for 2 hours
Range of Rh (%) test step: 0%-95%-0% RH
SMS DVS intrinsic dynamic vapor adsorption instrument
A sample (10 mg) was taken and placed in a DVS sample plate for testing.

[2] = Solid stability test (XRPD crystal form after storage); type: physicochemical; conditions: 40° C./75% RH(open)
BCR-FMS-BaF3 cells = test: CellTiter-Glo luminescent cell viability / cell proliferation assay; type: cell-based; conditions: for IC50: 72 h, BCR-FMS-BaF3, 3 days incubation
Description: Luminescent Cell Viability Assay (CellTiter-Glo® methold) from Promega was used for cell proliferation detection. CellTiter-Glo® Luminescent Cell Viability Assay (CellTiter-Glo® luminescent cell viability detection kit) was a homogeneous rapid detection method for detecting the viability of living cells in culture by quantitative determination of ATP. ATP was an indicator of the metabolism of living cells. Cell lysis and the resulting light signal were proportional to the amount of present ATP, and the amount of ATP is directly proportional to the number of living cells in the culture. The higher the fluorescence reading indicated the higher ATP content in the cell and also the higher the cell viability. Therefore, the inhibition degree of compound on cell proliferation can be monitored by fluorescence value. 1) The compound was diluted 2 mM with 100% DMSO, that is, 5 μL of 10 mM compound storage solution was taken and put into the first column of 96-well compound plate, then 20 μL of 100% DMSO were added and mixed well; 2) 20 μL of 100% DMSO was added to the second column to the tenth column of 96-well compound plate; 3) 5 μL of compound was taken from the first column to the second column and mixed well, and then 5 μL of compound was taken from the second column to the third column and mixed well. The above steps were repeated to the ninth column to complete the gradient dilution of the compound; 4) Preparation of compound working solution: 2 μL of compound per well from the second column of the compound plate was taken to a new 96 well compound plate, and 78 μL of cell culture medium per well was added; 2 μL of 100% DMSO from the negative control well was taken and 78 μL of cell culture medium was added; and 5) The compound concentration was the final concentration, in which the blank control well was the culture medium well without cells, and the negative control was 0.5% DMSO. 1) The BCR-FMS-BaF3 cell suspension was collected and centrifuged at 1000 rpm (revolutions per minute) for 5 minutes. The supernatant was removed, cells were resuspended with preheated medium and counted. After counting, the cell suspension was diluted with cell culture medium to the required density. Each well was inoculated with 80 μL cell suspension into 96 well cell culture plate. 2) On the day of the experiment, 20 μL of compound working solution was added to the cell plate and incubated for 3 days at 37° C. in a 5% CO2 incubator. [table] 3) After the incubation is completed, 20 μL of CTG detection reagent was added to each well of the cell plate, and incubated at 25° C. for 10 minutes. After the incubation is completed, EnVision was used for luminescence signal detection. […]

[3] = Solid stability test (XRPD crystal form after storage); type: physicochemical
Description: The samples placed at high temperature and humidity were sampled for XRPD testing on the 10th and 30th day; The samples exposed to light were put into a clean surface dish, laid into a thin layer, covered with a quartz glass cover, and sampled for XRPD testing on the 5th and 10th days; For the long-term test and accelerated test (shading), each sample were put into a double-layer LDPE bag, each layer of LDPE bag was respectively buckled and sealed, and then the LDPE bag was put into an aluminum foil bag with a package of desiccant and heat sealed. The samples were respectively placed at 25° C./60% RH, 30° C./65% RH and 40° C./75% RH for exploration, the test results were compared with the initial test results of 0 day and the test results were shown in Table 7 below.

With `CNC(=O)c1nccc2c(-c3cnc(Nc4ccc(OC5CC5)nc4)cc3C)c[nH]c12.Cl` the Classification of hygroscopicity [1] was “slight hygroscopicity”, the “ΔW (hygroscopic weight gain)” value ([1]; DVS) was 0.28% and the “Crystal form (XRPD)” value ([2]; 1 M) was “crystal form B”. The “Crystal form (XRPD)” value ([2]; 3 M) was “crystal form B”, the “Crystal form (XRPD)” value ([2]; 6 M) was “crystal form B” and the IC50 (BCR-FMS-BaF3 cells; mean of N = 1 and N = 2, read-out: IC50 (nM) Mean value ± SD) was 2.46 ± 0.008 nM. The IC50 (BCR-FMS-BaF3 cells; replicate N = 1, read-out: IC50 (nM) N = 1) was 2.46 nM, the IC50 (BCR-FMS-BaF3 cells; replicate N = 2, read-out: IC50 (nM) N = 2) was 2.47 nM and the “Inhibition of proliferation of BCR-FMS-BaF3 cells (conclusion in words)” value (BCR-FMS-BaF3 cells; BCR-FMS-BaF3 cells) was “significantly inhibit the proliferation”. For the same compound, the “Crystal form (XRPD)” value ([3]; 0 days (initial)) was “crystal form B”, the “Crystal form (XRPD)” value ([3]; 25° C./60% RH, 3 M) was “crystal form B” and the “Crystal form (XRPD)” value ([3]; 25° C./60% RH, 6 M) was “crystal form B”. For the same compound, the “Crystal form (XRPD)” value ([3]; 25° C./60% RH, 24 M) was “crystal form B”, the “Crystal form (XRPD)” value ([3]; 30° C./65% RH, 1 M) was “crystal form B” and the “Crystal form (XRPD)” value ([3]; 30° C./65% RH, 3 M) was “crystal form B”. The “Crystal form (XRPD)” value ([3]; 30° C./65% RH, 6 M) was “crystal form B”, the “Crystal form (XRPD)” value ([3]; high humidity (25° C./relative humidity 92.5%, open), 10 days) was “crystal form B” and the “Crystal form (XRPD)” value ([3]; high humidity (25° C./relative humidity 92.5%, open), 30 days) was “crystal form B”. For the same compound, the “Crystal form (XRPD)” value ([3]; high temperature (60° C., open), 10 days) was “crystal form B”, the “Crystal form (XRPD)” value ([3]; high temperature (60° C., open), 30 days) was “crystal form B” and the “Solid stability (conclusion)” value ([3]; influencing factors, light, acceleration and long-term experimental conditions) was “good stability”. For the same compound, the “Crystal form (XRPD)” value ([3]; strong light (5000 lx and UV intensity 90 w/cm^2, open), 5 days) was “crystal form B” and the “Crystal form (XRPD)” value ([3]; strong light (5000 lx and UV intensity 90 w/cm^2, open), 10 days) was “crystal form B”.
